Patent publication US4010149A, “Analogs of LH-RH and process for preparing the same” (Sankyo Company Limited, priority 1974, dated 1977)

test system: ovulation; assay: Ovulation inducing effect in proestrus rats (subcutaneous); assay type: in vivo, F. Wistar-Imamichi rats; details: subcutaneous injection at 4:00 p.m. on proestrus day; pentobarbital 30 mg/kg i.p. at 1:00 p.m.; five rats per dosage
Protocol: Examination of ovulation inducing effect
F. Wistar-Imamichi rats (body weight: around 250 g) were bred at room temperature (23° ±1° C) under an artificial light (on at 5:00 a.m. and off at 7:00 p.m.). Among these rats, the rats which had more than three times of four days sexual cycle were subjected to the test.
At 1:00 p.m. on proestrus days, pentobarbital sodium salt was intraperitoneally administered into each of rats (in the amount of 30 mg/kg). Then, at 4:00 p.m. of the same day, a test sample dissolved in 0.1 ml of isotonic sodium chloride solution was subcutaneously injected. Between noon and 1:00 p.m. of the next day, the rats were sacrified and the oviduct was immediately taken out. The oviduct was then placed between a couple of slide glasses and examined for ova through a microscope. The test was conducted by employing five rats for a certain dosage of test samples.

| Compound | ED50 (ovulation inducing effect) |
| --- | --- |
| CC(C)C[C@H](NC(=O)CNC(=O)[C@H](Cc1ccc(O)cc1)NC(=O)[C@H](CO)NC(=O)[C@H](Cc1c[nH]c2ccccc12)NC(=O)[C@H](Cc1c[nH]cn1)NC(=O)[C@@H]1CCC(=O)N1)C(=O)N[C@@H](CCCNC(=N)N)C(=O)N1CCC[C@H]1C(=O)NCC(N)=O [Natural-type LH-RH (synthesized), L-pyroglutamyl-L-histidyl-L-tryptophyl-L-seryl-L-tyrosylglycyl-L-leucyl-L- arginyl-L-prolylglycine amide, reference compound] | 0.134 μg/body |
| CCCC[C@@H](NC(=O)[C@H](Cc1ccc(O)cc1)NC(=O)[C@H](CO)NC(=O)[C@H](Cc1c[nH]c2ccccc12)NC(=O)[C@H](Cc1c[nH]cn1)NC(=O)CN(C)C(C)=O)C(=O)N[C@@H](CC(C)C)C(=O)N[C@@H](CCCNC(=N)N)C(=O)N1CCC[C@H]1C(=O)NCCF [Compound B, N-Acetyl-N-methylglycyl-L-histidyl-L-tryptophyl-L-seryl-L-tyrosyl-D-norleucyl-L-leucyl-L-arginyl-L-proline-2-fluoroethylamide] | 0.0125 μg/body |
| N-Acetyl-N-methylglycyl-L-histidyl-L-tryptophyl-L-seryl-L-tyrosyl-D-alanyl-L-leucyl-L-arginyl-L-prolineethylamide [Compound A] | 0.018 μg/body |
